Three molecules from US20100056601A1, “Control agent containing N-Substituted indole derivative for acarian parasitic on animal” (Nippon Kayaku Kabushiki Kaisha, priority 2004, published 2010) can be followed below.

Data set [1] concerns two-spotted spider mite (Tetranychus urticae). Kind of data set: Comparative test: insecticidal effect on two-spotted spider mite, leaf immersion (Test Example 5). Format: in vivo. The following applies: for insecticidal activity against the two-spotted spider mites (in words): 200 ppm, 2 days after immersion; for mortality at 200 ppm: Tetranychus urticae, in Phaseolus vulgaris, 48 h, read-out: Mortality after 2 days (%). As for the experimental part: Twenty adult female two-spotted spider mites were released on the leaves of a potted kidney bean plant. One day after the release, the kidney bean leaves were immersed for several seconds in a chemical solution obtained by diluting a 20% emulsion of each compound with tap water to a concentration of 200 ppm. After air-dryness, the leaves were placed in a room thermostated at 25° C. Two days after the immersion, whether the adult two-spotted spider mites on the leaves were alive or dead were judged and the dead and alive were counted. The mortality was calculated.

The test system of data set [2] is cat. Description: Administration to a cat, spot-on dropping, clinical symptom (Test Example 4). The following applies: for Clinical symptom: 0.5 ml spot-on.
Excerpt: After the dropping, the clinical symptom of the cat was observed.
The subject of data set [3] is hatched larvae of Haemaphysalis longicornis. Description: In vitro control effect on acarians, treated Pasteur's pipette test (Test Example 1). Format: in vivo. As for the experimental part: Neoglamine was added to the emulsion of Example 1 in an amount of 0.01% and the resulting mixture was diluted with tap water to each concentration shown in Table 2. After a commercial 0.5×15 cm Pasteur's pipette was immersed in the dilution for 30 seconds, it was vertically stood on cotton and air-dried. The head of the air-dried Pasteur's pipette was plugged with cotton, and 10 hatched larvae of Haemaphysalis longicornis were sucked from the cotton-plugged end side by the use of a suction pump and then the other end was sealed with putty. After the suction, the pipette was allowed to stand in a desiccator containing a saturated aqueous disodium hydrogenphosphate solution and maintained at 23° C. Observation was carried out after 2 days and after 4 days. Fipronil was used as a positive control.

The test system of data set [4] is std:ddy strain male mice. Kind of data set: Toxicity to mouse, administration into the stomach (Test Example 3). The format is in vivo. Particulars: into the stomach in olive oil. As for the experimental part: The compound listed in Table 1 or Fipronil was dissolved in olive oil to a predetermined concentration, and the resulting solution was directly administered into the stomachs of std:ddy strain male mice by the use of a probe. The dose was 30 mg/kg or 100 mg/kg. Whether the mice were alive or dead was observed 3 hours, 1 day, 7 days and 14 days after the administration.

In data set [5] the test system is hatched larvae of Haemaphysalis longicornis. Kind of data set: In vivo control effect on ticks on rabbit ears, spot-on treatment (Test Example 2). As for the experimental part: About 40 hatched larvae of Haemaphysalis longicornis were inoculated on the ears of a rabbit by the use of a cloth bag, made parasitic on the rabbit and allowed to suck the blood. After 24 hours, the cloth bag was taken off and ticks sucking the blood were counted. […] The left ear was not treated. Three hours, 1 day and 2 days after the spot-on treatment, the living ticks on each of the right and left ears were counted. As a control animal, there was used a rabbit whose right ear had been treated with only the base ingredient for preparation for spot-on treatment and whose left ear had been not treated.

Where [6] appears, read: Haemaphysalis longicornis, 48 h, read-out: Mortality after 2 days.
The mark [7] stands for this setting: Haemaphysalis longicornis, 96 h, read-out: Mortality after 4 days.
Setting [8] is: left ear (not treated), right ear spot-on 0.1 ml of 20% solution.
The mark [9] stands for this setting: right ear (treated), spot-on 0.1 ml of 20% solution.

Like-named read-outs stand apart in the source and are kept apart here.

Regarding `FC(Cl)(Cl)Sc1cn(-c2c(Cl)cc(C(F)(F)F)cc2Cl)c2ccccc12` [Compound 17, 1-(2,6-dichloro-4-trifluoromethylphenyl)-3-(dichlorofluoromethylthio)indole], in data set [1], the “insecticidal activity against the two-spotted spider mites (in words)” value is listed as “no insecticidal activity” and the mortality (commonly the share of the test organisms that died) at 200 ppm is 0%. For the same molecule, the Clinical symptom entry in data set [2] (cat, dropping concentration 10%) was “No sign was recognized”. For the same molecule, the Clinical symptom result in data set [2] (cat, dropping concentration 20%) is “No sign was recognized”. Further, the Clinical symptom entry in data set [2] (cat, dropping concentration 30%) is recorded as “No sign was recognized”. Further, the “abnormal sign due to the spot-on dropping” value in data set [2] (cat, 10, 20 or 30% liquid drops) is listed as “no abnormal sign”. Further, the “toxicity to cat (in words)” value in data set [2] (cat, spot-on 10, 20 or 30% liquid drops) is “only low toxicity”. In data set [3] (setting [6]), the mortality at 0.1 ppm turned out to be 0%, the mortality at 1 ppm came to 20% and the mortality at 10 ppm amounted to 100%. Also, in data set [3] (setting [7]), the mortality at 0.1 ppm turned out to be 0%, the mortality at 1 ppm was 80% and the mortality at 10 ppm came to 100%. In data set [4] (30 mg/kg), the “Cumulative mortality after 3 hours” value was 0/5, the “Cumulative mortality after 1 day” value is recorded as 0/5, the “Cumulative mortality after 7 days” value is listed as 0/5 and the “Cumulative mortality after 14 days” value is listed as 0/5. In data set [4] (100 mg/kg), the “Cumulative mortality after 3 hours” value is listed as 0/5, the “Cumulative mortality after 1 day” value is 0/5, the “Cumulative mortality after 7 days” value is reported as 0/5 and the “Cumulative mortality after 14 days” value is recorded as 0/5. Also, the “extermination of ticks on the treated right ear (in words)” value in data set [5] (in 3 hours after the treatment) is on record as “quickly exterminated ticks on the right ear”. Moreover, in data set [5] (in 1 day after the treatment), the “extermination of ticks on the untreated left ear (in words)” value is “also exterminated ticks on the left ear”. Further, the “Number of living ticks, before dropping” value in data set [5] (left ear (not treated), baseline before spot-on on right ear) was 15. In data set [5] (setting [8]), the “Number of living ticks, after 3 hours” value is recorded as 15; the “Number of living ticks, after 1 day” value turned out to be 0; the “Number of living ticks, after 2 days” value is 0. In addition, the “Number of living ticks, before dropping” value in data set [5] (right ear (treated ear), baseline before spot-on of 0.1 ml 20% solution) came out at 15. Moreover, in data set [5] (setting [9]), the “Number of living ticks, after 3 hours” value is 3; the “Number of living ticks, after 1 day” value is recorded as 1; the “Number of living ticks, after 2 days” value was found to be 0.

As to `FC(F)(F)Sc1cn(-c2c(Cl)cc(C(F)(F)F)cc2Cl)c2ccccc12` [Compound 25, 1-(2,6-dichloro-4-trifluoromethylphenyl)-3-(trifluoromethylthio)indole], in data set [1], the “insecticidal activity against the two-spotted spider mites (in words)” value was “no insecticidal activity” and the mortality at 200 ppm was determined as 0%. In data set [3] (setting [6]), the mortality at 0.01 ppm was determined as 30%, the mortality at 0.1 ppm amounted to 100%, the mortality at 1 ppm came to 100% and the mortality at 10 ppm was 100%. For the same molecule, in data set [3] (setting [7]), the mortality at 0.01 ppm turned out to be 60%, the mortality at 1 ppm was determined as 100% and the mortality at 10 ppm was found to be 100%. Besides, in data set [4] (30 mg/kg), the “Cumulative mortality after 3 hours” value is 0/5, the “Cumulative mortality after 1 day” value is 0/5, the “Cumulative mortality after 7 days” value is 0/5 and the “Cumulative mortality after 14 days” value is given as 0/5. Moreover, in data set [4] (100 mg/kg), the “Cumulative mortality after 3 hours” value was 0/5, the “Cumulative mortality after 1 day” value is given as 0/5, the “Cumulative mortality after 7 days” value was 0/5 and the “Cumulative mortality after 14 days” value was 0/5.

In the case of `N#Cc1nn(-c2c(Cl)cc(C(F)(F)F)cc2Cl)c(N)c1[S+]([O-])C(F)(F)F` (centres unmarked) [Fipronil, 5-amino-1-(2,6-dichloro-4-(trifluoromethyl)phenyl)-4-((trifluoromethyl)sulfinyl)-1H-pyrazole-3-carbonitrile, reference compound], the mortality at 0.1 ppm in data set [3] (48 h, 0.1 ppm, Haemaphysalis longicornis larvae, 23° C., read-out: Mortality after 2 days) is 30%; in data set [3] (96 h, 0.1 ppm, Haemaphysalis longicornis larvae, 23° C., read-out: Mortality after 4 days) it was 60%. The mortality at 1 ppm in data set [3] (48 h, 1 ppm, Haemaphysalis longicornis larvae, 23° C., read-out: Mortality after 2 days) came out at 100%; in data set [3] (96 h, 1 ppm, Haemaphysalis longicornis larvae, 23° C., read-out: Mortality after 4 days) it was 100%. For the same molecule, the mortality at 10 ppm in data set [3] (48 h, 10 ppm, Haemaphysalis longicornis larvae, 23° C., read-out: Mortality after 2 days) is 100%; in data set [3] (96 h, 10 ppm, Haemaphysalis longicornis larvae, 23° C., read-out: Mortality after 4 days) it was 100%. For the same molecule, the “Cumulative mortality after 3 hours” value in data set [4] (30 mg/kg) is on record as 0/5; in data set [4] (100 mg/kg), 1/5. Further, the “Cumulative mortality after 1 day” value in data set [4] (30 mg/kg) was 1/5; in data set [4] (100 mg/kg), 5/5. In addition, the results for the “Cumulative mortality after 7 days” value in data set [4] (30 mg/kg) and in data set [4] (100 mg/kg) were 1/5 and 5/5, respectively. The entries for the “Cumulative mortality after 14 days” value in data set [4] (30 mg/kg) and in data set [4] (100 mg/kg) were 1/5 and 5/5, respectively.
